According to the Kinase Knowledgebase extract (Sharma et al. 2016):

target: MAPK14 (human) (UniProt Q16539); experiment: Inhibition of MAPK14 Kinase Activity
Sequence (Q16539 whole entry, looked up): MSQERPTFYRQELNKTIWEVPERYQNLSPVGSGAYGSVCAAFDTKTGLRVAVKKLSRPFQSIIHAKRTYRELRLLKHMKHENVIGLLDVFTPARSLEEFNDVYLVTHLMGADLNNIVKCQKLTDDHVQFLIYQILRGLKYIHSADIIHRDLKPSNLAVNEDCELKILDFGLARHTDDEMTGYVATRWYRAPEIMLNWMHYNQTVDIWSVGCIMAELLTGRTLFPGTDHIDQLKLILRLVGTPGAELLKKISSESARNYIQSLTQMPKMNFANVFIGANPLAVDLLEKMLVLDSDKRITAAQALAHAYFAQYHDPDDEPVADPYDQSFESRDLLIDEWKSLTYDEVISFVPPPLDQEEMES

IC50, ≤ 10 µM:
CC(C)(C)OC(=O)N(Cc1ccccn1)c1cc(Cl)c(N2CC(Cc3ccc(F)cc3F)CCC2=O)c(Cl)c1 (stereo unspecified)
O=C1CSC(Cc2ccc(F)cc2F)CN1c1c(Cl)ccc(CO)c1Cl (stereo unspecified)
O=C1CCC(Sc2cc(Cl)cc(Cl)c2)CN1c1c(Cl)cncc1Cl (stereo unspecified)
O=C(Cc1ccccc1)Nc1cnc(Cl)c(N2CC(Cc3ccc(F)cc3F)CCC2=O)c1Cl (stereo unspecified)
CN1CC(Cc2ccc(F)cc2F)CN(c2c(Cl)cc(NC(=O)Cc3ccccc3)cc2Cl)C1=O (stereo unspecified)
O=C1NCC(Cc2cc(F)cc(F)c2)CN1c1c(Cl)cccc1Cl (stereo unspecified)
O=C1CCC(Cc2ccc(F)cc2F)CN1c1cc(Cl)cc(Cl)c1 (stereo unspecified)
O=C1CCC(Cc2ccc(Cl)cc2Cl)CN1c1c(Cl)ccnc1Cl (stereo unspecified)
O=C1CCC(Sc2ccccc2Cl)CN1c1c(Cl)cncc1Cl (stereo unspecified)
O=C1CCC(Sc2ccccc2F)CN1c1c(Cl)cncc1Cl (stereo unspecified)
CC(=O)Nc1cc(Cl)c(N2CC(Cc3ccc(F)cc3F)CN(C)C2=O)c(Cl)c1 (stereo unspecified)
O=C1CCC(Oc2ccccc2Cl)CN1C1C(Cl)CCCC1Cl (stereo unspecified)
CN1CC(Cc2ccc(F)cc2F)CN(c2c(Cl)ccc(NC(=O)Cc3ccccc3)c2Cl)C1=O (stereo unspecified)
Cc1cc(C(=O)NCCN(C)C)cc(C)c1N1C[C@@H](Cc2ccc(F)cc2F)C[C@@H](C)C1=O
Cc1cc(CCCN(C)C)cc(C)c1N1C[C@@H](Cc2ccc(F)cc2F)C[C@@H](C)C1=O
CC(C)(C)OC(=O)N(CC(=O)O)c1cc(Cl)c(N2CC(Cc3ccc(F)cc3F)CCC2=O)c(Cl)c1 (stereo unspecified)
Cc1cc(C(=O)N2CCOCC2)cc(C)c1N1CC(Cc2ccc(F)cc2F)CCC1=O (stereo unspecified)
O=C1CCC(Sc2ccccc2Cl)CN1c1c(Cl)cccc1Cl (stereo unspecified)
CC(C)(C)OC(=O)Nc1cc(Cl)c(N2CC(Cc3ccc(F)cc3F)CCC2=O)c(Cl)c1 (stereo unspecified)
O=C1CCC(Cc2ccccc2Cl)CN1c1c(Cl)ccnc1Cl (stereo unspecified)
O=C1CCC(Cc2ccc(F)cc2F)CN1c1c(Cl)cnc(O)c1Cl (stereo unspecified)
O=C1CCC(Sc2ccc(F)cc2F)CN1C1C(Cl)CC(O)CC1Cl (stereo unspecified)
O=C1CCC(Cc2ccc(F)cc2)CN1c1c(Cl)cncc1Cl (stereo unspecified)
CC(c1ccc(F)cc1F)C1CCC(=O)N(c2c(Cl)cccc2Cl)C1 (stereo unspecified)
Cc1ccc(SC2CCC(=O)N(C3C(Cl)CCCC3Cl)C2)c(C)c1 (stereo unspecified)
CNc1ccc(Cl)c(N2CC(Cc3ccc(F)cc3F)COC2=O)c1Cl (stereo unspecified)
COc1ccccc1OC1CCC(=O)N(c2c(Cl)cccc2Cl)C1 (stereo unspecified)
O=C1CCC(Cc2ccc(F)cc2)CN1C1C(Cl)CCCC1Cl (stereo unspecified)
COc1ccc(SC2CCC(=O)N(c3c(Cl)cccc3Cl)C2)cc1 (stereo unspecified)
O=C(O)CNc1cc(Cl)c(N2CC(Cc3ccc(F)cc3F)CCC2=O)c(Cl)c1 (stereo unspecified)
Cc1cc(C(=O)O)cc(C)c1N1CC(Cc2ccc(F)cc2F)CCC1=O (stereo unspecified)
O=C1COC(Cc2ccc(F)cc2F)CN1c1c(Cl)cc(O)cc1Cl (stereo unspecified)
O=C1CSC(Cc2ccccc2Cl)CN1c1c(Cl)cccc1Cl (stereo unspecified)
O=C1CCC(Oc2ccc(F)cc2)CN1c1c(Cl)csc1Cl (stereo unspecified)
O=C1COC(Cc2ccc(F)cc2F)CN1c1c(Cl)cc(CO)cc1Cl (stereo unspecified)
COC(c1ccc(F)cc1F)C1CCC(=O)N(c2c(Cl)cccc2Cl)C1 (stereo unspecified)
CN(C)CCN(C(=O)OC(C)(C)C)c1cc(Cl)c(N2CC(Cc3ccc(F)cc3F)CCC2=O)c(Cl)c1 (stereo unspecified)
O=C(Cc1ccccc1)Nc1ccc(Cl)c(N2CC(Cc3ccc(F)cc3F)OCC2=O)c1Cl (stereo unspecified)
Cc1ccc(OC2CCC(=O)N(c3c(Cl)ccnc3Cl)C2)c(C)c1 (stereo unspecified)
CNC(=O)CCc1cc(Cl)c(N2CC(Cc3ccc(F)cc3F)CCC2=O)c(Cl)c1 (stereo unspecified)
O=C1CCC(Oc2cccc3ccccc23)CN1c1c(Cl)csc1Cl (stereo unspecified)
O=C1NCC(Cc2cccc3ccccc23)CN1c1c(Cl)cccc1Cl (stereo unspecified)
Cc1ccccc1CC1CCC(=O)N(c2c(Cl)csc2Cl)C1 (stereo unspecified)
O=C1CCC(Sc2ccc(F)cc2F)CN1c1c(Cl)cccc1Cl (stereo unspecified)
Cc1cc(C)cc(OC2CCC(=O)N(c3c(Cl)cccc3Cl)C2)c1 (stereo unspecified)
CN1CCC(Nc2cc(Cl)c(N3CC(Cc4ccc(F)cc4F)CCC3=O)c(Cl)c2)CC1 (stereo unspecified)
Cc1cc(C(=O)NCCC(=O)O)cc(C)c1N1CC(Cc2ccc(F)cc2F)CCC1=O (stereo unspecified)
Cc1ccccc1CC1CSC(=O)N(c2c(Cl)cccc2Cl)C1 (stereo unspecified)
O=C1CC[C@H](Cc2ccc(F)cc2F)CN1c1c(Cl)cccc1Cl
O=C1OCC(Cc2ccc3ccccc3c2)CN1c1c(Cl)cccc1Cl (stereo unspecified)
O=C1SCC(Cc2ccc(F)cc2F)CN1c1c(Cl)cccc1Cl (stereo unspecified)
CN1CC(Cc2ccc(F)cc2F)CN(c2c(Cl)ccc(N)c2Cl)C1=O (stereo unspecified)
Cc1ccccc1SC1CCC(=O)N(c2c(Cl)cccc2Cl)C1 (stereo unspecified)
Nc1cc(Cl)c(N2CC(Oc3ccc(F)cc3F)CCC2=O)c(Cl)c1 (stereo unspecified)
CC(=O)NC1CCC(Cl)C(N2CC(Oc3ccc(F)cc3F)CCC2=O)C1Cl (stereo unspecified)
COc1ccc(OC2CCC(=O)N(C3C(Cl)CCCC3Cl)C2)cc1 (stereo unspecified)
